IC50 data for 2 compounds are collected here from patent US20230167070A1, “MODULATORS OF TREX1” (Constellation Pharmaceuticals, Inc., priority 2020, published 2023).

Each structure is given as a SMILES string.

Experiment [1] has as its target T1, full length human TREX1 (Homo sapiens, UniProt Q9NSU2).
T1 construct: N-terminally His-Tev tagged full length human TREX1; made in house; host or cells: E. coli
T1 sequence (Q9NSU2 1-314): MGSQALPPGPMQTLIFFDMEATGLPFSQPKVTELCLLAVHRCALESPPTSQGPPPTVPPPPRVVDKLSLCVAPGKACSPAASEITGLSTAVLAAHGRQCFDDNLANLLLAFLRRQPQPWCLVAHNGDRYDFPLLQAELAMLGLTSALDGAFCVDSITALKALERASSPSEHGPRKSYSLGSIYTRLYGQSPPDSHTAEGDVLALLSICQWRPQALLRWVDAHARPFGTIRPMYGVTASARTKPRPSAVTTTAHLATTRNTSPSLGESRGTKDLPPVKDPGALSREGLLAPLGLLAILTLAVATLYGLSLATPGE
Nature of the experiment: TREX1 Biochemical Assay (fluorescence, dsDNA substrate degradation). As to conditions: 150 pM TREX1, 60 nM dsDNA substrate, 25 minutes at room temperature. The procedure:
Degradation of the dsDNA liberates free fluorophore to produce a fluorescent signal. Specifically, 7.5 μL of N-terminally His-Tev tagged full length human TREX1 (expressed in E. coli and purified in house) in reaction buffer (50 mM Tris (pH 7.4), 150 mM NaCl, 2 mM DTT, 0.1 mg/mL BSA, 0.01% (v/v) Tween-20 and 100 mM MgCl2) was added to a 384-well Black ProxiPlate Plus (Perkin Elmer) which already contained compound (150 nL) at varying concentrations as a 10 point dose-response in DMSO. To this was added 7.5 μL of dsDNA substrate (Strand A: 5′ TEX615/GCT AGG CAG 3′; Strand B: 5′ CTG CCT AGC/IAbRQSp (Integrated DNA Technologies)) in reaction buffer. Final concentrations were 150 pM TREX1, 60 nM dsDNA substrate in reaction buffer with 1.0% DMSO (v/v). After 25 minutes at room temperature, reactions were quenched by the addition of 5 μL of stop buffer (same as reaction buffer plus 200 mM EDTA). Final concentrations in the quenched reaction were 112.5 pM TREX1, 45 nM DNA and 50 mM EDTA in a volume of 20 μL. After a 5-minute incubation at room temperature, plates were read in a laser sourced Envision (Perkin-Elmer), measuring fluorescence at 615 nm following excitation w/570 nm light. IC50 values were calculated by comparing the measured fluorescence at 615 nm ratio relative to control wells pre-quenched w/stop buffer (100% inhibition) and no inhibitor (0% inhibition) controls as using non-linear least square four parameter fits and either Genedata or GraphPad Prism (GraphPad Software, Inc.).

In experiment [2] the target is T2, human TREX2 (residues M44-A279) (Homo sapiens, UniProt Q9BQ50).
T2 construct: human TREX2 (residues M44-A279, expressed in E. coli); made in house; host or cells: E. coli
T2 sequence (Q9BQ50 44-279 isoform Q9BQ50-1): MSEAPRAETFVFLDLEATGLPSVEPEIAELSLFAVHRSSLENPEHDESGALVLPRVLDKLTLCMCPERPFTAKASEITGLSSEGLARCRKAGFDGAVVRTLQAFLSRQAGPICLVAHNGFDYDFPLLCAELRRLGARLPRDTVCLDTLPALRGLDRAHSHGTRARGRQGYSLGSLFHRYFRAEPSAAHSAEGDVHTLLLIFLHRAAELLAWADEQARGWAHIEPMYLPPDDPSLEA
Nature of the experiment: TREX2 Biochemical Assay (fluorescence, dsDNA substrate degradation). Particulars: 2.5 nM TREX2, 60 nM dsDNA substrate, 25 minutes at room temperature. The procedure:
Degradation of the dsDNA liberates free fluorophore to produce a fluorescent signal. Specifically, 7.5 μL of N-terminally His-Tev tagged human TREX2 (residues M44-A279, expressed in E. coli and purified in house) in reaction buffer (50 mM Tris (pH 7.4), 150 mM NaCl, 2 mM DTT, 0.1 mg/mL BSA, 0.01% (v/v) Tween-20 and 100 mM MgCl2) was added to a 384-well Black ProxiPlate Plus (Perkin Elmer) which already contained compound (150 nL) at varying concentrations as a 10 point dose-response in DMSO. To this was added 7.5 μL of dsDNA substrate (Strand A: 5′ TEX615/GCT AGG CAG 3′; Strand B: 5′ CTG CCT AGC/IAbRQSp (IDT)) in reaction buffer. Final concentrations were 2.5 nM TREX2, 60 nM dsDNA substrate in reaction buffer with 1.0% DMSO (v/v). After 25 minutes at room temperature, reactions were quenched by the addition of 5 μL of stop buffer (same as reaction buffer plus 200 mM EDTA). Final concentrations in the quenched reaction mixture were […] TREX2, 45 nM DNA and 50 mM EDTA in a volume of 20 μL. After a 5-minute incubation at room temperature, plates were read in a laser sourced Envision (Perkin-Elmer), measuring fluorescence at 615 nm following excitation w/570 nm light. IC50 values were calculated by comparing the measured fluorescence at 615 nm ratio relative to control wells pre-quenched w/stop buffer (100% inhibition) and no inhibitor (0% inhibition) controls as using non-linear least square four parameter fits and either Genedata or GraphPad Prism (GraphPad Software, Inc.).

The term IC50 denotes the concentration needed to halve the response being measured. A low value points to inhibition by little substance. As to `CN(c1nc(C(=O)Nc2nnco2)c(O)c(=O)n1C)C(c1ccccc1)c1ccccc1` [Example 38, 2-(benzhydryl(methyl)amino)-5-hydroxy-1-methyl-N-(1,3,4-oxadiazol-2-yl)-6-oxo-1,6-dihydropyrimidine-4-carboxamide], the IC50 lay within 1 to 10 µM in experiment [1] and 10 to 100 µM in experiment [2].

On to `CN(c1nc(C(=O)Nc2ccon2)c(O)c(=O)n1C)C(c1ccccc1)c1ccccc1` [Example 39, 2-(benzhydryl(methyl)amino)-5-hydroxy-N-(isoxazol-3-yl)-1-methyl-6-oxo-1,6-dihydropyrimidine-4-carboxamide], for which the IC50 in experiment [1] is 0.1 to 1 µM; in experiment [2], 10 to 100 µM.
